Like-named read-outs stand apart in the source and are kept apart here.
How the values were obtained:
[1] = test system: participants with narcolepsy; assay: Toronto Hospital Alertness Test (THAT), narcolepsy study; assay type: in vivo, human; settings: end of 7-day treatment period
Experimental: The Toronto Hospital Alertness Test (THAT) is a 10-item self-report questionnaire that measures perceived alertness over the previous week; scores can range from 0 to 50, with higher scores indicating greater alertness (Shapiro et al., 2006). This assessment was administered at the end of each 7-day treatment period to evaluate participants' perceived alertness throughout the treatment period.
Additional secondary efficacy measures (standard deviation of speed, number of lane drifts, and THAT scores) were analyzed using a similar ANOVA method as described for SDLP. No multiplicity adjustments were made in the efficacy analyses for multiple endpoints, and all p values are therefore nominal.

[2] = test system: participants with narcolepsy; assay: Safety / adverse events, narcolepsy study; assay type: in vivo, human
Experimental: Safety assessments included a physical examination, ECG, clinical laboratory tests, and assessment of adverse events (AEs).
Demographic, narcolepsy history, and safety data were summarized for the safety population, which included all participants who received ≥1 dose of study drug. No formal statistical testing was performed on these parameters.

[3] = test system: subjects with EDS due to OSA; assay: Toronto Hospital Alertness Test (THAT), OSA study; assay type: in vivo, human
Experimental: THAT is analyzed using a mixed effect analysis of covariance (ANCOVA) model. The model includes baseline, treatment (JZP-110 and placebo), treatment period, treatment sequence as fixed effects and subject as a random effect. *p-value is nominal.
The THAT is a 10-item self-report questionnaire designed to measure perceived alertness in the preceding week (Shapiro 2006). The test was administered at baseline and prior to administration of study drug at Visits 4 and 5

[4] = test system: subjects with EDS due to OSA; assay: Safety / adverse events, OSA study; assay type: in vivo, human
Experimental: The incidence of treatment-emergent adverse events was summarized by treatment. Descriptive statistics were presented for vital sign results. No formal statistical testing was performed for the safety analyses.
The use of vital signs, clinical laboratory tests, standard AE reporting, and the questionnaires that were selected to assess the safety of the study drug were appropriate since they are routinely used to assess the safety profile of drugs in clinical studies and pertinent to known risks of solriamfetol. The C-SSRS is able to determine clinically meaningful points at which a person may be at risk for an impending suicide attempt (Posner 2011).

[5] = test system: participants with narcolepsy; assay: Actual task effectiveness from PVT inverse reaction time, narcolepsy; assay type: in vivo, human; settings: narcolepsy n=20
Experimental: Actual task effectiveness scores were calculated based on each participant's inverse reaction time (IRT [1/RT]) as described below. Sleep intervals derived from participants' actigraphy data—or from sleep diaries, if available, where actigraphy data were missing—were used to calculate modeled healthy control task effectiveness scores using the SAFTE. Participants evidenced good sleep hygiene, with minimal missing data. Task effectiveness was not modeled for participants missing data from the night before PVT testing. A SAFTE model effectiveness score of 100 indicates typical best performance during the day, based on a normal healthy population. SAFTE-FAST effectiveness predictions have been validated against IRT on the PVT [22].
Actual effectiveness scores were calculated as a percentage of a theoretical “best performance” from participants' average IRT per PVT trial (for all PVT test sessions, actual effectiveness=IRT/3.96×100). Average speed (IRT) on a PVT under optimal conditions—healthy sleepers taking the test at 11:00 in the morning, following an 8-hour sleep opportunity—is approximately 3.96 [40], and is assumed to represent an actual effectiveness score of 100 (a healthy participant's typical best performance). Repeated-measures analysis of variance (ANOVA) was used to estimate the effect of treatment on actual effectiveness over time.

[6] = test system: participants with narcolepsy; settings: 12 weeks; 75 to 300 mg/day; cited from earlier work
[7] = test system: participants with narcolepsy; settings: 12 weeks; 75 to 300 mg/day; cited from earlier work; remark: listed apart in the source
[8] = cited from earlier work

## NC(=O)OC[C@H](N)Cc1ccccc1 [Solriamfetol, (R)-2-amino-3-phenylpropyl carbamate]
[1]
  THAT score, LS mean (SE): 34.0 (1.4)
  THAT score, LS mean difference solriamfetol vs placebo: 7.1
[2]; in vivo
  serious or fatal TEAEs: no serious or fatal TEAEs
[2]; while on solriamfetol
  participants experiencing a TEAE, n (%): 17 (74%)
[2]; while taking solriamfetol
  discontinuation due to AEs: No participant discontinued
[3]; PP population
  THAT total score, LS mean difference, sensitivity analysis: 2.983
[3]; end of treatment period, mITT
  THAT total score, LS mean (SE): 27.52
  THAT total score, mean (SD): 27.5 (7.60)
  THAT total score, median: 28.5
[3]; end of treatment period, mITT, listed as JZP-110
  THAT total score, LS mean (SE): 27.52 (1.162)
[3]; mITT
  THAT median total score, difference vs placebo: 4.0
  THAT total score, LS mean difference (JZP-110 − Placebo): 3.579
[4]; after receiving solriamfetol
  subjects with TEAE considered related to study treatment: 35.3%
[4]; in vivo
  serious or fatal TEAEs: no serious nor fatal TEAEs
[4]; received solriamfetol
  subjects with TEAE related or suspected related to study drug, n (%): 12 (35.3%)
[4]; receiving solriamfetol
  subjects experiencing TEAEs, n (%): 17 (50.0%)
[5]; 2 hours post-dose
  Actual task effectiveness, LS mean (SE): 96.07 (1.65)
  Actual task effectiveness, LS mean difference: 10.41
[5]; 6 hours post-dose
  Actual task effectiveness, LS mean (SE): 93.89 (1.65)
  Actual task effectiveness, LS mean difference: 7.60
[5]; pre-dose
  Actual task effectiveness, LS mean (SE): 86.06 (1.65)
  Actual task effectiveness, LS mean difference: −6.16
[6]
  Epworth Sleepiness Scale, treatment difference from placebo (least squares mean): −2.2 to −4.7 points
[7]
  Maintenance of Wakefulness Test, treatment difference from placebo (least squares mean): 2.6 to 10.1 min
[8]; fasting conditions
  mean half-life: 5.9 h
  median time to peak plasma concentration: 2 h
[8]; fed conditions
  mean half-life: 6.1 h
  median time to peak plasma concentration: 3 h

Reference: patent publication US20260199282A1, “METHODS AND COMPOSITIONS FOR IMPROVING DRIVING PERFORMANCE” (priority 2022, published 2026)
